Data on six molecules can be found in PubChem BioAssay AID2060485 (Molecular Pharmacology Branch, DTP, NCI, 2025).

This test has as its system A375 multi-cell spheroids with HUVEC/MSC, viability. Briefly: Anticancer human tumor A375 cell line growth inhibition [GQUAD].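 As to all read-outs here: spheroids exposed to compounds for seven days before readout.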 The conditions noted are these: for viability, T/C: stronger effect = lower value. From the text:
DNA G-quadruplex Stabilizer Agents in Combinations in Complex Spheroids
A high-throughput screen of multi-cell type tumor spheroids was designed to identify active combinations of DNA G-quadruplex stabilizer agents and targeted small molecules. Complex spheroids include a stromal component modeled by human endothelial cells (HUVEC) and fibroblasts modeled by human mesenchymal stem cells (MSCs). The concentration ranges selected for each drug and investigational agent were based upon clinically achievable concentrations if the clinical Cmax of the agent was known.
Compounds. The drugs and investigational agents: pidnarulex (CX-5461; NSC782164), APTO-253 (NSC789042), BRACO-19 (NSC847499), peposertib (NSC802822), ceralasertib (NSC780249), elimusertib (NSC800525), camonsertib (NSC841442), AZD-1390 (NSC803789), olaparib (NSC753686), talazoparib (NSC767125), ART-558 (NSC835418), sotorasib (NSC818433), MRTX-1133 (NSC836407), SN-38 (NSC673596), topotecan (NSC609699), etoposide (NSC141540), doxorubicin (NSC123127), gemcitabine (NSC613327), 5-fluorouracil (NSC19893), paclitaxel (NSC125973), vemurafenib (NSC761431), panobinostat (NSC761190), R-306465 (JNJ-16241199; NSC773264), adavosertib (NSC754352), TP-3654 (NSC805149), carboplatin (NSC241240), KSQ-4279 (NSC840948), and staurosporine (NSC755774) were obtained from the National Cancer Institute (NCI) Developmental Therapeutics Program Chemical Repository (34). The FDA-approved anticancer drug set is available from the NCI Developmental Therapeutics Program. […] The stock solutions were prepared in dimethyl sulfoxide (DMSO, Sigma-Aldrich, St. Louis, MO, cat. D2650) at 800-fold the tested concentration and stored at -70 degrees C prior to their use. All drugs and investigational agents were tested over a range starting from a high concentration at or near the clinical Cmax and decreasing in half-log increments. If the clinical Cmax for an agent had not been determined, the highest concentration tested was 10 microM.
2.3 Cell Culture. All cells were maintained in an incubator at 37 degrees C and 5% CO2 with 95% humidity. The PDC lines were cultured according to standard operating procedures established by the NCI PDMR. All PDCs were thawed and cultured in Matrigel-coated flasks prepared with a working solution of 1X Ham's F-12 nutrient mix, without supplementation (Invitrogen, cat. 11765054), 100 U/mL penicillin-streptomycin (Invitrogen, cat. 15140122), and 2.5% Matrigel (Corning Inc., cat. 354248) for the first three passages. The 857933-349-R-J2-PDC line was cultured in 6C/Colon 1B media, which includes advanced DMEM/F-12 (Thermo Fisher Scientific, cat. 12634028), 10 mM HEPES (Thermo Fisher Scientific, cat. 15630080), 1X GlutaMAX supplement (Thermo Fisher Scientific, cat. 35050061), 0.1 mg/mL primocin (InvivoGen, cat. ant-pm-2), 10% defined fetal bovine serum, heat inactivated (HyClone Laboratories Inc., cat. SH30070.03HI), 50% L-WRN conditioned media (ATCC, cat. CRL-3276), 1.25 mM N-Acetyl-L-cysteine (Sigma-Aldrich, cat. A9165), 10 mM nicotinamide (Sigma-Aldrich, cat. N0636), 1X B-27 supplement (Thermo Fisher Scientific, cat. 17504044), 1X N-2 supplement (Thermo Fisher Scientific, cat. 17502048), 10 microM Y-27632 dihydrochloride (Tocris Bioscience, cat. 1254), and 50 ng/mL human EGF recombinant protein (Thermo Fisher Scientific, cat. PHG0311). The 485176-168-R4-J1-PDC line was cultured in Panc media, which includes all 6C/Colon 1B media components plus 100 ng/mL human FGF-10 (Thermo Fisher Scientific, cat. 100-26), 500 nM SB-431542 (Selleckchem, cat. S1067), and gastrin (Tocris, cat. 3006).
[…]

Where “and” joins values, the source holds several entries; their conditions need not be identical. Equal values may be shown once.

Usually IC50 stands for the concentration needed to halve the response being measured. One may read the viability, T/C as the ratio of treated to control. `C#Cc1c(F)ccc2cc(O)cc(-c3ncc4c(N5CC6CCC(C5)N6)nc(OCC56CCCN5CC(F)C6)nc4c3F)c12` (configuration not stated) + Cc1[nH]c2ccc(F)cc2c1-c1nc2c3cccnc3c3ncccc3c2[nH]1: the IC50 was more than 10 µM (curve of first compound, second compound 0.0316 µM); more than 10 µM (curve of first compound, second compound 0.1 µM); more than 10 µM (curve of first compound, second compound 0.316 µM); more than 10 µM (curve of first compound, second compound 1 µM); 5.37 µM (curve of first compound, second compound 3.16 µM); more than 10 µM (curve of first compound, second compound 10 µM). Moreover, the viability, T/C is 102% (second compound 0.0316 µM, first compound 0.0316 µM); 99.5% (second compound 0.0316 µM, first compound 0.1 µM); 97.1% (second compound 0.0316 µM, first compound 0.316 µM); 107% (second compound 0.0316 µM, first compound 1 µM); 97.2% (second compound 0.0316 µM, first compound 3.16 µM); 97.1% (second compound 0.0316 µM, first compound 10 µM). In addition, the viability, T/C is 104% (second compound 0.1 µM, first compound 0.0316 µM); 104% (second compound 0.1 µM, first compound 0.1 µM); 99.4% (second compound 0.1 µM, first compound 0.316 µM); 102% (second compound 0.1 µM, first compound 1 µM); 101% (second compound 0.1 µM, first compound 3.16 µM); 102% (second compound 0.1 µM, first compound 10 µM). For the same molecule, the viability, T/C (second compound 0.316 µM, first compound 0.0316 µM) is 105%; the viability, T/C (second compound 0.316 µM, first compound 0.1 µM) was 104%; the viability, T/C (second compound 0.316 µM, first compound 0.316 µM) is 96.7%; the viability, T/C (second compound 0.316 µM, first compound 1 µM) was 101%; the viability, T/C (second compound 0.316 µM, first compound 3.16 µM) was 101%; the viability, T/C (second compound 0.316 µM, first compound 10 µM) is 101%. Moreover, the viability, T/C runs as follows: (second compound 1 µM, first compound 0.0316 µM) 113%; (second compound 1 µM, first compound 0.1 µM) 104%; (second compound 1 µM, first compound 0.316 µM) 94.2%; (second compound 1 µM, first compound 1 µM) 97.2%; (second compound 1 µM, first compound 3.16 µM) 105%; (second compound 1 µM, first compound 10 µM) 103%. The viability, T/C (second compound 3.16 µM, first compound 0.0316 µM) is 81.8%; the viability, T/C (second compound 3.16 µM, first compound 0.1 µM) is 71.6%; the viability, T/C (second compound 3.16 µM, first compound 0.316 µM) was 74.2%; the viability, T/C (second compound 3.16 µM, first compound 1 µM) is 84.7%; the viability, T/C (second compound 3.16 µM, first compound 3.16 µM) is 62.3%; the viability, T/C (second compound 3.16 µM, first compound 10 µM) is 35.6%. For the same molecule, the viability, T/C is 86.5% (second compound 10 µM, first compound 0.0316 µM); 86.9% (second compound 10 µM, first compound 0.1 µM); 94.4% (second compound 10 µM, first compound 0.316 µM); 79.8% (second compound 10 µM, first compound 1 µM); 78% (second compound 10 µM, first compound 3.16 µM); 61.8% (second compound 10 µM, first compound 10 µM).
For the molecule `CCCS(=O)(=O)Nc1ccc(F)c(C(=O)c2c[nH]c3ncc(-c4ccc(Cl)cc4)cc23)c1F`, the viability, T/C by setting is: (compound 0.0316 µM) 41.8% and 44% and 40.9%; (compound 0.1 µM) 16.1% and 14.9% and 17.2%; (compound 0.316 µM) 8.83% and 9.93% and 11.1%; (compound 1 µM) 6.9% and 7.11% and 7.65%; (compound 3.16 µM) 5.54% and 6.38% and 6.53%; (compound 10 µM) 5.63% and 5.69% and 7.54%. Under “curve of compound”, the IC50 is less than 0.0316 µM.
On to `Cn1ncnc1[C@H]1c2n[nH]c(=O)c3cc(F)cc(c23)N[C@@H]1c1ccc(F)cc1`, for which the viability, T/C runs as follows: (compound 0.000999 µM) 93.9% and 104% and 90.5%; (compound 0.00316 µM) 98% and 101% and 97%; (compound 0.00999 µM) 104% and 103% and 98.8%; (compound 0.0316 µM) 108% and 106% and 99.2%; (compound 0.0999 µM) 112% and 104% and 98.9%; (compound 0.316 µM) 94.1% and 91.5% and 92.8%. Besides, the IC50 (curve of compound) is more than 0.316 µM.
For the molecule `O=C(NO)c1cnc(N2CCN(S(=O)(=O)c3ccc4ccccc4c3)CC2)nc1`, the viability, T/C runs as follows: (compound 0.0316 µM) 107% and 124% and 114%; (compound 0.1 µM) 109% and 110% and 112%; (compound 0.316 µM) 5.8% and 7.04% and 12.4%; (compound 1 µM) 0.3% and 0.23%; (compound 3.16 µM) 0.3% and 0.39% and 0.16%; (compound 10 µM) 0.32% and 0.35% and 0.19%. The IC50 (curve of compound) is 0.192 µM and 0.195 µM and 0.205 µM.
As to `CN(C)c1ccc(Nc2c3ccc(NC(=O)CCN4CCCC4)cc3nc3cc(NC(=O)CCN4CCCC4)ccc23)cc1`, the viability, T/C is 98.8% [middle of 12 runs] (compound 0.0316 µM); 103% [middle of 12 runs] (compound 0.1 µM); 104% [middle of 12 runs] (compound 0.316 µM); 101% [middle of 12 runs] (compound 1 µM); 106% [middle of 12 runs] (compound 3.16 µM); 102% [middle of 12 runs] (compound 10 µM). The IC50 (compound alone, run of 03/26/2024) was more than 10 µM.
As to `CC(C)(O)C1CCC(Nc2ccc3ncc(-c4cccc(C(F)(F)F)c4)n3n2)CC1` (configuration not stated), the viability, T/C is, setting by setting: (compound 0.0316 µM) 104% and 93.2% and 105%; (compound 0.1 µM) 105% and 99.9% and 95.9%; (compound 0.316 µM) 99.1% and 95.6% and 91.5%; (compound 1 µM) 97.7% and 95.2% and 105%; (compound 3.16 µM) 90.2% and 83.5% and 92%; (compound 10 µM) 87.5% and 88% and 97.8%. The IC50 (curve of compound) is more than 10 µM.
